Data from ChEMBL document CHEMBL1143567, “Hierarchical database screenings for HIV-1 reverse transcriptase using a pharmacophore model, rigid docking, solvation docking, and MM-PB/SA” (J Med Chem, 2005).

System: Human immunodeficiency virus 1
Experiment: Concentration required to inhibit 50% viral production of human immunodeficiency virus type 1 (HIV-1-IIIB)
Format: functional, organism-based

CC(=O)c1ccccc1NC(C(N)=O)c1c(Cl)cccc1Cl (stereo not given)
IC50: 26 nM

Cc1c(Sc2ccccc2)n(COCCO)c(=S)[nH]c1=O
IC50: 1600 nM

O=C1Nc2ccc(Cl)cc2[C@@](C#CC2CC2)(C(F)(F)F)N1
IC50: 0.36 nM

CC(C)=CCN1Cc2cc(Cl)cc3nc(S)n(c23)CC1C (stereo not given) [TIBO]
IC50: 33 nM

Cc1c(O)nc(OC2CCCCC2)nc1Cc1ccccc1
IC50: 4700 nM

CC1=C(C(=O)Nc2ccc(Cl)c(C(=O)OC(C)C)c2)SCCO1
IC50: 42 nM

CCN1c2ncccc2-c2ncc(C)n2-c2ccc(OC)nc21
IC50: 190 nM

Cc1cc(C)cc(Cc2c(C(C)C)c(=O)[nH]c(=O)n2COCCO)c1
IC50: 2.7 nM

CC(C)Nc1cccnc1N1CCN(C(=O)c2cc3cc(NS(C)(=O)=O)ccc3[nH]2)CC1 [DELAVIRDINE]
IC50: 1100 nM

O=C1Nc2ccc(Cl)cc2[C@@](C#CC2CC2)(C(F)(F)F)O1 [EFAVIRENZ]
IC50: 2.93 nM

CC(=O)c1ccc(C)cc1NC(C(N)=O)c1c(Br)cccc1Br (stereo not given)
IC50: 420 nM

CC(C)=CCN1Cc2c(Cl)ccc3[nH]c(=S)n(c23)C[C@@H]1C [TIVIRAPINE]
IC50: 3 nM

CC(C)c1nc(COC(N)=O)n(Cc2ccncc2)c1Sc1cc(Cl)cc(Cl)c1 [CAPRAVIRINE]
IC50: 3.1 nM

Cc1ccnc2c1NC(=O)c1cccnc1N2C1CC1 [NEVIRAPINE]
IC50: 200 nM

CCOCn1c(Cc2ccccc2)c(C(C)C)c(=O)[nH]c1=O [EMIVIRINE]
IC50: 8 nM

Fc1cccc(Cl)c1CCNC(=S)Nc1nccs1
IC50: 50 nM

S=C(NCCc1ccccc1)Nc1nccs1
IC50: 1300 nM

COc1ccc2c(c1)N(C(=O)OC(C)C)C(CSC)C(S)=N2 (stereo not given)
IC50: 6 nM

CC(C)c1c(Cc2ccccc2)n(COCc2ccccc2)c(=O)[nH]c1=O
IC50: 6 nM

CC(=O)c1ccc(C)cc1NC(C(N)=O)c1c(Cl)cccc1Cl (stereo not given) [LOVIRIDE]
IC50: 100 nM

S=C(NCCc1ccccn1)Nc1ccc(Br)cn1 [TROVIRDINE]
IC50: 20 nM

CCC1=CC(NCc2nc3c(C)ccc(C)c3o2)C(=O)N=C1C (stereo not given)
IC50: 50 nM

O=C(O)C1=CC(=C(c2ccc(O)c(C(=O)O)c2)c2ccc(O)c(C(=O)O)c2)C=CC1=O [AURINTRICARBOXYLIC ACID]
IC50: 5000 nM

CCCCCC=C(c1cc(Br)c(OC)c(C(=O)OC)c1)c1cc(Br)c(OC)c(C(=O)OC)c1
IC50: 16000 nM

C=CCN1Cc2cccc3[nH]c(=O)n(c23)CC1C (stereo not given)
IC50: 62000 nM

CCN1c2cc([N+](=O)[O-])ccc2N(C)C(=O)c2cccnc21
IC50: 400 nM

O=C1c2ccccc2C2(c3ccccc3)SCCN12 (stereo not given)
IC50: 16 nM

CC(C)=CCOc1cc(NC(=S)c2ccoc2C)ccc1Cl [UC 781]
IC50: 9 nM

CN1C(=O)c2ccccc2C1(N)c1ccccc1 (stereo not given)
IC50: 10000 nM

NC(=O)C(Nc1ccccc1[N+](=O)[O-])c1c(Cl)cccc1Cl (stereo not given)
IC50: 33 nM

O=C1Nc2ccc(Cl)cc2C(/C=C/C2CC2)(C(F)(F)F)N1 (stereo not given)
IC50: 0.4 nM

Cc1c(Sc2ccccc2)n(COCCO)c(=O)[nH]c1=O [HEPT]
IC50: 7000 nM

CC(C)OC(=O)c1cc(NC(=S)OC(C)C)ccc1Cl
IC50: 29 nM

CC1Oc2c3c(c4c(-c5ccccc5)cc(=O)oc4c2C(O)C1C)OC(C)(C)C=C3 (stereo not given)
IC50: 1400 nM

Fc1cccc(F)c1CC/N=C(\S)Nc1ccc(Br)cn1
IC50: 10 nM
